Data reported in patent publication US20250187998A1, “IDENTIFICATION OF SOIL BACTERIA-ENRICHING AGENTS AND METHODS OF USE THEREOF” (California Institute of Technology, priority 2023, published 2025).

What was measured:
[1] = system: Bacillus subtilis; test: Soil competition (soil bacteria-enrichment) assay, qPCR with strain-specific probes; format: cell-based; conditions: 1 g non-sterile agriculture soil, 300 μL exudates, 20 mM target carbon substrate, four species pooled, 72 hours, qPCR (FIG. 23)
Procedure: (§1) In some embodiments, the competition assay comprises adding one or more bacteria of interest to non-sterile agriculture soil at an equal starting OD and incubating the soil with plant root exudate and a desired concentration of candidate soil-bacteria enriching agent. In some embodiments, the non-sterile agriculture soil further comprises one or more plants. Methods of obtaining plant root exudate are known in the art. All such methods are suitable for use in the methods disclosed herein. For example, in some embodiments, plant root exudate is obtained by surface sterilizing Arabidopsis thaliana seeds, sowing the seeds on an agar plate and growing the seeds for 7 days. In some embodiments, after 7 days, the seedlings are transferred to a multi-well plate for exudate collection. In some embodiments, exudate collection comprises adding MS media to each well of the multi-well well plate along with about 50, 7-day old, Arabidopsis seedlings. The seedlings are then incubated with shaking in growth chamber for about 24 hours. After 24 hours, the exudates are collected, pooled, and filter sterilized. In some embodiments, the treated non-sterile agriculture soil is incubated with plant root exudate and a desired concentration of soil bacteria-enriching agent for about 3 days. After 3 days, DNA is extracted from soil and the concentration of the bacteria in the soil is measured. For example, in some embodiments, qPCR analysis is conducted using a universal bacteria primer “ALL” and species-specific primers. The threshold cycle (Ct) value for the universal primer is then subtracted from each of the species-specific primers to get the dCt or ΔCt.
(§2) The ability of the identified compounds to effectively manipulate the soil microbial community was examined using a series of soil bacteria-enrichment experiments. First, the ability of the candidate selective carbon substrates to influence microbial competition was tested using a series of soil competition experiments. 1 g of non-sterile agriculture soil was added to a 2 mL tube along with 300 μL of exudates, 20 mM target carbon substrates and an OD 3.33 of all four species pooled at an equal starting concentration. Tubes were collected after 72 hours and stored in −80° C. before processing. DNA was then extracted and screened using qPCR with probes unique to each strain to determine the abundance of each strain in the mixed community.

[2] = system: Pseudomonas putida; test: as above; format: cell-based; conditions: 1 g non-sterile agriculture soil, 300 μL exudates, 20 mM target carbon substrate, four species pooled, 72 hours, qPCR (FIG. 24)
Procedure: as §1, §2

[3] = system: P. putida KT2440 (PP); test: Enrichment of bioinoculant in soil in the presence of plants (bulk soil and root qPCR); format: in vivo, Pseudomonas putida; Arabidopsis thaliana seedlings; conditions: agriculture soil in magenta box, +/- 20 mM phenylethylamine, 10^5 cells per gram of soil, four Arabidopsis seedlings, 1 or 2 weeks
Description: Some embodiments herein are directed to a method of assessing whether a given soil bacteria-enriching agent enriches a specific species of bacteria in a soil microbiome comprising at least one additional bacterial species when one or more plants are being supported by the soil. In some embodiments, the method comprises adding a known concentration of one or more species of bacteria to soil along with a soil bacteria-enriching agent. In some embodiments, the bacteria comprise Pseudomonas putida (PP), Azotobacter vinelandii (AV), Bacillus subtilis (BS), and/or Azospirillum brasilense (AB). In some embodiments, soil moisture at the start of the experiment is adjusted a desired level for growth of the plant. One or more plants are then planted in the treated soil and allowed to grow for about 1, 2, 3, 4, 5, 6, 7, 8, 9, 10, 11, 12, 13, 14, 15, 16, 17, 18, 19, 20, 21, 22, 23, 24, 25, 26, 27, 28, 29, 30, or 31 days or more, or for an amount of time that is in a range that is defined by any two of the preceding values. […] The quantity of one or more species of bacteria in the soil and/or the plant roots is then determined and one or more soil bacteria-enriching agents that uniquely promote the growth and attraction of a desired bacterial species as compared to one or more other bacteria in the soil microbiome are identified. […]

[4] = system: Pseudomonas putida; test: Persistence of P. putida bioinoculant in non-sterile soil over time (qPCR, ΔCt); format: cell-based; conditions: initial density 10^5 cfu/g soil, exudate solution +/- 20 mM PEA, 28° C., sampled every 3 days, qPCR ΔCt (FIG. 25-26)
Procedure: FIG. 25-26 are graphs showing persistence of a P. putida bioinoculant over time. […] Lower ΔCt indicates higher abundance. P. putida was introduced into non-sterile soil at an initial density of 10^5 cfu/g soil in exudate solution +/−20 mM phenylethylamine (PEA) at day 0 and allowed to incubate at 28° C. Two replicates are shown for each condition. Every 3 days, soil was collected, and DNA was extracted to probe the concentration of P. putida using 16S primers. Template DNA for qPCR was normalized to ˜1 ng/reaction.

[5] = system: Azospirillum brasilense; test: Soil competition (soil bacteria-enrichment) assay, qPCR with strain-specific probes; format: cell-based; conditions: 1 g non-sterile agriculture soil, 300 μL exudates, 20 mM target carbon substrate, four species pooled, 72 hours, qPCR (FIG. 21)
Procedure: as §1, §2

SMILES	enrichment of Bacillus subtilis in agricultural soils with a native microbiome [1]	enrichment of Pseudomonas putida in agricultural soils with native microbiome [2]	other results
OC[C@H]1O[C@@H](Oc2ccc(O)cc2)[C@H](O)[C@@H](O)[C@@H]1O [arbutin, Arbutin]	can be used to enrich Bacillus subtilis		
CCCCCCCCCC(=O)O [capric acid, Capric acid]		can be used to enrich Pseudomonas putida	
NCCc1ccccc1 [phenylethylamine, Phenylethylamine]		can be used to enrich Pseudomonas putida	enrichment of PP in the bulk soil ([3]; qPCR (FIG. 27)): enriched; enrichment of PP on plant root (root colonization) ([3]; root DNA qPCR (FIG. 28)): enriched; persistence of Pseudomonas putida in agricultural soil [4]: persists longer
CCC(=O)[O-].[Na+] [sodium propionate]			enrichment of Azospirillum brasilense in agricultural soils with a native microbiome [5]: can be used to enrich Azospirillum brasilense
COC1OC(CO)C(O)C(O)C1O [α-methyl d-galactoside, a-Methyl-D-Galactoside]	can be used to enrich Bacillus subtilis		
